This experiment concerns the target POLRMT (Homo sapiens (Human), UniProt O00411). As to the kind of experiment: homogeneous TR-FRET assay of mitochondrial transcription (inhibition of POLRMT). The class given is biochemical. Conditions: 7.5 nM POLRMT, 15 nM TFB2M, 30 nM TFAM, 0.5 nM DNA template, 500 μM NTPs, 37° C. for 60 minutes. An outline of the steps:
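POLRMT transcription from linearized pUC-LSP DNA template; RNA product detected by hybridization of ATTO647 acceptor (1 nM) and biotinylated donor (3 nM) probes plus Europium-streptavidin. Reaction stopped with EDTA/700 mM NaCl buffer, pH 7.5.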
In general terms: TR-FRET usually uses a lanthanide donor and a delayed reading to cut background.

Structures are written as SMILES. Bounds are passed on as bounds.

Sequence of POLRMT (O00411 42-1230): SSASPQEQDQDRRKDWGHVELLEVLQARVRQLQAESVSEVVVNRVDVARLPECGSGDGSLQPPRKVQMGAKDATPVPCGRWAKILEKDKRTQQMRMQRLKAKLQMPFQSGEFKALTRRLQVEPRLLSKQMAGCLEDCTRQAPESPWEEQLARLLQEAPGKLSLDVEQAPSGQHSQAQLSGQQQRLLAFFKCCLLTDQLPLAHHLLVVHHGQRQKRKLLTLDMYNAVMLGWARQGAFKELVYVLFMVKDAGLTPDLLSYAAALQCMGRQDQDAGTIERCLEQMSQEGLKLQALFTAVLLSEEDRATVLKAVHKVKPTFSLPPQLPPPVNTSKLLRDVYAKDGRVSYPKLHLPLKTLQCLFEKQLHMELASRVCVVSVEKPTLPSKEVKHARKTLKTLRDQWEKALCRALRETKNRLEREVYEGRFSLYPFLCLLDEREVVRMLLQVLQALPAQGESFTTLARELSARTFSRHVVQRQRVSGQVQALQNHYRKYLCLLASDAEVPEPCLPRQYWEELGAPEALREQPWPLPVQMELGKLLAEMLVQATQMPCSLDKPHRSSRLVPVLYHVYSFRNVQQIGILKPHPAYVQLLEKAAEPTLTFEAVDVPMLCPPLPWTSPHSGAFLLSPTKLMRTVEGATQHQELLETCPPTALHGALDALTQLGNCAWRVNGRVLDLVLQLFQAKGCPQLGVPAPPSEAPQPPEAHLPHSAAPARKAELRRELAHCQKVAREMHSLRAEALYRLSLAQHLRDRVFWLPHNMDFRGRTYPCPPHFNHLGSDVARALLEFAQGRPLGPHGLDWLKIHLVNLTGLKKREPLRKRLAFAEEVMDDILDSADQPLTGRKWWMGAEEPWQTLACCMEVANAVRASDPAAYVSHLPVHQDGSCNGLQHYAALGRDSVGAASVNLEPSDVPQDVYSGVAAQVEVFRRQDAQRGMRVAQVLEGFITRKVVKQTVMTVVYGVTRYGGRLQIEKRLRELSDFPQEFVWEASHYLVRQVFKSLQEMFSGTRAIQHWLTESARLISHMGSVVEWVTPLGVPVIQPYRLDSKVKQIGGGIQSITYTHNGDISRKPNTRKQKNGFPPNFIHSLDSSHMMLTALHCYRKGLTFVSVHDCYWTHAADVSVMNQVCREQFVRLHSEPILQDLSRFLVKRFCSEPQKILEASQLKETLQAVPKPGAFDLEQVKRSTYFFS

As a reminder, the IC50 is the midpoint of a concentration-inhibition curve. In turn, `CC(=O)NC(C)c1ccc2c(-c3ccccc3C)cc(=O)oc2c1` (centres unmarked) [Example 96, N-(1-(2-oxo-4-(o-tolyl)-2H-chromen-7-yl)ethyl)acetamide] yielded a half-maximal inhibitory concentration (IC50) of 2000 nM.

As for `Cc1ccccc1-c1cc(=O)oc2cc(CC(C)C(=O)N3CCCCC3)ccc12` (single isomer, unassigned) [Example 62, 7-(2-methyl-3-oxo-3-(piperidin-1-yl)propyl)-4-(o-tolyl)-2H-chromen-2-one], the midpoint of inhibition, the IC50, lay at 80 nM.

On to `CCN(C)C(=O)c1ccc2c(-c3ccc(F)cc3Cl)cc(=O)oc2c1` [Example 23, 4-(2-chloro-4-fluorophenyl)-N-ethyl-N-methyl-2-oxo-2H-chromene-7-carboxamide], for which the IC50 is 19000 nM.

Regarding `Cc1ccccc1-c1cc(=O)oc2cc(C(=O)N3CCCC(N(C)C)C3)ccc12` (centres unmarked) [Example 170, 7-(3-(dimethylamino)piperidine-1-carbonyl)-4-(o-tolyl)-2H-chromen-2-one], the 50% inhibitory concentration (IC50) was more than 100000 nM.

As to `Cc1ccccc1-c1cc(=O)oc2cc(CC(C)C(=O)N3CCC[C@H](S(N)(=O)=O)C3)ccc12` (single isomer, unassigned) [Example 98], it took 14000 nM to reach half-maximal inhibition (IC50).

`Cc1ccccc1-c1cc(=O)oc2cc(NC(C)C(N)=O)ccc12` (single isomer, unassigned) [Example 189, 2-((2-oxo-4-(o-tolyl)-2H-chromen-7-yl)amino)propanamide] displayed an IC50 of 900 nM.

The compound `CCNC(=O)[C@@H](C)N(C)c1ccc2c(-c3ccc(F)cc3Cl)cc(=O)oc2c1` [Example 56, (R)-2-((4-(2-chloro-4-fluorophenyl)-2-oxo-2H-chromen-7-yl)(methyl)amino)-N-ethylpropanamide] had an IC50 of 200 nM. This IC50 lies about 4.5-fold lower than the previous one.

Take `CNCc1ccc2c(-c3ccc(F)cc3Cl)cc(=O)oc2c1` [Example 04, 4-(2-chloro-4-fluorophenyl)-7-((methylamino)methyl)-2H-chromen-2-one]: the 50% inhibitory concentration (IC50) is more than 100000 nM.

In turn, `Cc1cc(O)c2c(-c3ccc(F)cc3)cc(=O)oc2c1` [Example 12, 4-(4-fluorophenyl)-5-hydroxy-7-methyl-2H-chromen-2-one] returned a 50% inhibitory concentration (IC50) of more than 100000 nM.

`O=C(O)CCNc1ccc2c(-c3ccc(F)cc3Cl)cc(=O)oc2c1` [Example 129, 3-((4-(2-chloro-4-fluorophenyl)-2-oxo-2H-chromen-7-yl)amino)propanoic acid] had an IC50 of 7000 nM.

As for `CNC(=O)[C@@H]1C[C@@H]1c1ccc2c(-c3ccccc3C)cc(=O)oc2c1` (relative stereo) [Example 231, (cis)-N-methyl-2-(2-oxo-4-(o-tolyl)-2H-chromen-7-yl)cyclopropane-1-carboxamide], inhibition was half-maximal at 400 nM (IC50).

For `Cc1ccccc1-c1cc(=O)oc2cc(CN(C)C(=O)C3CCC(C(=O)O)CC3)ccc12` [Example 158, (1S,4S)-4-(methyl((2-oxo-4-(o-tolyl)-2H-chromen-7-yl)methyl)carbamoyl)cyclohexane-1-carboxylic acid], the midpoint of inhibition, the IC50, lay at 800 nM.

The compound `Cc1ccccc1-c1cc(=O)oc2cc(C(=O)NCc3nccn3C)ccc12` [Example 122, N-((1-methyl-1H-imidazol-2-yl)methyl)-2-oxo-4-(o-tolyl)-2H-chromene-7-carboxamide] yielded a half-inhibitory concentration (IC50) of 5000 nM.

On to `Cc1ccccc1-c1cc(=O)oc2cc(CC(C)C(N)=O)ccc12` (single isomer, unassigned) [Example 68, 2-methyl-3-(2-oxo-4-(o-tolyl)-2H-chromen-7-yl)propanamide], for which the IC50 is 600 nM. Against the preceding compound, the IC50 is about 8.3-fold lower.

`CC(O)c1ccc2c(-c3ccc(F)cc3Cl)cc(=O)oc2c1` (centres unmarked) [Example 40, 4-(2-chloro-4-fluorophenyl)-7-(1-hydroxyethyl)-2H-chromen-2-one] registered a half-maximal inhibitory concentration (IC50) of 2000 nM.

As for `Cc1ccccc1-c1cc(=O)oc2cc(CC(C)C(=O)N(C)C)ccc12` (single isomer, unassigned) [Example 64, N,N,2-trimethyl-3-(2-oxo-4-(o-tolyl)-2H-chromen-7-yl)propanamide], the half-maximal inhibitory concentration (IC50) came to 300 nM.

Take `Cc1ccccc1-c1cc(=O)oc2cc(N(C)CC3(C(=O)O)CC3)ccc12` [Example 217, 1-((methyl(2-oxo-4-(o-tolyl)-2H-chromen-7-yl)amino)methyl)cyclopropane-1-carboxylic acid]: the IC50 was found to be 90 nM.

As to `Cc1ccccc1-c1cc(=O)oc2cc(NCc3ncco3)ccc12` [Example 166, 7-((oxazol-2-ylmethyl)amino)-4-(o-tolyl)-2H-chromen-2-one], the IC50 was determined as 5000 nM.

On to `Cc1ccccc1-c1cc(=O)oc2cc(CNC(=O)N3CCC(C(=O)O)CC3)ccc12` [Example 151, 1-(((2-oxo-4-(o-tolyl)-2H-chromen-7-yl)methyl)carbamoyl)piperidine-4-carboxylic acid], for which the IC50 amounted to 3000 nM.

For the compound `COCC(Cc1ccc2c(-c3ccccc3C)cc(=O)oc2c1)C(N)=O` (single isomer, unassigned) [Example 208, 3-methoxy-2-((2-oxo-4-(o-tolyl)-2H-chromen-7-yl)methyl)propanamide], the half-maximal inhibitory concentration (IC50) is 3000 nM.

In the case of `Cc1ccccc1-c1cc(=O)oc2cc(CC(C)C(=O)N3CCC[C@H](S(C)(=O)=O)C3)ccc12` (single isomer, unassigned) [Example 86], the concentration for half-maximal inhibition (IC50) was 5000 nM.

The compound `CNC(=O)[C@H]1CCCN(C(=O)C(C)Cc2ccc3c(-c4ccccc4C)cc(=O)oc3c2)C1` (single isomer, unassigned) [Example 92] showed an IC50 of 200 nM. This IC50 is about 25-fold lower than that of the compound before.

Take `Cc1ccccc1-c1cc(=O)oc2cc([C@@H]3C[C@H]3C(=O)N(C)C)ccc12` (relative stereo) [Example 240, chiral-(trans)-N,N-dimethyl-2-(2-oxo-4-(o-tolyl)-2H-chromen-7-yl)cyclopropane-1-carboxamide]: the IC50 came out at 8000 nM.

Regarding `Cc1ccccc1-c1cc(=O)oc2cc(NCC(=O)O)ccc12` [Example 71, (2-oxo-4-(o-tolyl)-2H-chromen-7-yl)glycine], half-maximal inhibition (IC50) was put at 6000 nM.

For the compound `Cc1ccccc1-c1cc(=O)oc2cc(NC3(C(N)=O)CC3)ccc12` [Example 213, 1-((2-oxo-4-(o-tolyl)-2H-chromen-7-yl)amino)cyclopropane-1-carboxamide], half-maximal inhibition (IC50) required 21000 nM.

Turning to `Nc1ccc2c(-c3ccc(F)cc3Cl)cc(=O)oc2c1` [Example 11, 7-amino-4-(2-chloro-4-fluorophenyl)-2H-chromen-2-one], the IC50 worked out at 24000 nM.

For `Cc1ccccc1-c1cc(=O)oc2cc(C(=O)N3CC(C(N)=O)C3)ccc12` [Example 183, 1-(2-oxo-4-(o-tolyl)-2H-chromene-7-carbonyl) azetidine-3-carboxamide], it took 7000 nM to reach half-maximal inhibition (IC50).

`Cc1ccccc1-c1cc(=O)oc2cc(NCc3ccccc3)ccc12` [Example 107, 7-(benzylamino)-4-(o-tolyl)-2H-chromen-2-one] returned a concentration for half-maximal inhibition (IC50) of 3000 nM.

`C[C@@H](Nc1ccc2c(-c3ccc(F)cc3Cl)cc(=O)oc2c1)C(=O)N(C)C` [Example 28, (R)-2-((4-(2-chloro-4-fluorophenyl)-2-oxo-2H-chromen-7-yl)amino)-N,N-dimethylpropanamide] returned an IC50 of 800 nM.

In turn, `COCCNC(=O)CN(C)c1ccc2c(-c3ccccc3C)cc(=O)oc2c1` [Example 218, N-(2-methoxyethyl)-2-(methyl(2-oxo-4-(o-tolyl)-2H-chromen-7-yl)amino)acetamide] registered an IC50 of 200 nM.

In turn, `Cc1ccccc1-c1cc(=O)oc2cc(CN(C)C(=O)N3CCC(C(=O)O)CC3)ccc12` [Example 147, 1-(methyl((2-oxo-4-(o-tolyl)-2H-chromen-7-yl)methyl)carbamoyl)piperidine-4-carboxylic acid] returned a concentration for half-maximal inhibition (IC50) of 300 nM.

`Cc1ccccc1-c1cc(=O)oc2cc(N(C)CC(=O)NCCO)ccc12` [Example 219, N-(2-hydroxyethyl)-2-(methyl(2-oxo-4-(o-tolyl)-2H-chromen-7-yl)amino)acetamide] registered a half-inhibitory concentration (IC50) of 200 nM.

In turn, `Cc1ccccc1-c1cc(=O)oc2cc(N(C)CC(=O)O)ccc12` [Example 76, N-methyl-N-(2-oxo-4-(o-tolyl)-2H-chromen-7-yl)glycine] returned an IC50 of 200 nM. This counts as sub-micromolar.

For `Cc1ccccc1-c1cc(=O)oc2cc(CNC(=O)C3CCC(C(=O)O)CC3)ccc12` [Example 157, (1S,4S)-4-(((2-oxo-4-(o-tolyl)-2H-chromen-7-yl)methyl)carbamoyl)cyclohexane-1-carboxylic acid], the IC50 was determined as 2000 nM.

`Cc1ccccc1-c1cc(=O)oc2cc(NCC(C)C(=O)O)ccc12` (single isomer, unassigned) [Example 155-1, 2-methyl-3-((2-oxo-4-(o-tolyl)-2H-chromen-7-yl)amino)propanoic acid] gave an IC50 of 500 nM. This IC50 lies about 4-fold lower than the previous one.

Compound `Cc1ccccc1-c1cc(=O)oc2cc(CNC(=O)C3CCC(C(=O)O)CC3)ccc12` (centres unmarked) [Example 153, 4-(((2-oxo-4-(o-tolyl)-2H-chromen-7-yl)methyl)carbamoyl)cyclohexane-1-carboxylic acid] had a 50% inhibitory concentration (IC50) of 200 nM. Against the preceding compound, the IC50 is about 2.5-fold lower.

On to `CC(C(N)=O)N(C)c1ccc2c(-c3ccccc3)cc(=O)oc2c1` (centres unmarked) [Example 194, 2-(methyl(2-oxo-4-phenyl-2H-chromen-7-yl)amino)propanamide], for which the IC50 turned out to be 300 nM. Against the preceding compound, the IC50 is about 1.5-fold higher.

In turn, `Cc1ccccc1-c1cc(=O)oc2cc(NC(C)C(N)=O)ccc12` (single isomer, unassigned) [Example 190, 2-((2-oxo-4-(o-tolyl)-2H-chromen-7-yl)amino)propanamide] displayed an IC50 of 800 nM.

Regarding `CC(=O)N(C)[C@H]1CCCN(C(=O)c2ccc3c(-c4ccccc4C)cc(=O)oc3c2)C1` [Example 173, (S)—N-methyl-N-(1-(2-oxo-4-(o-tolyl)-2H-chromene-7-carbonyl)piperidin-3-yl)acetamide], half-maximal inhibition (IC50) was put at 73000 nM. Against the preceding compound, the IC50 is about 91-fold higher.

On to `O=C(O)CCNc1ccc2c(-c3ccccc3Cl)cc(=O)oc2c1` [Example 131, 3-((4-(2-chlorophenyl)-2-oxo-2H-chromen-7-yl)amino)propanoic acid], for which the IC50 was found to be 8000 nM.

On to `Cc1ccccc1-c1cc(=O)oc2cc(N(C)CC(=O)NS(C)(=O)=O)ccc12` [Example 191, 2-(methyl(2-oxo-4-(o-tolyl)-2H-chromen-7-yl)amino)-N-(methylsulfonyl)acetamide], for which the IC50 stood at 7000 nM.

Source of the values: US20250326732A1 (Pretzel Therapeutics, Inc., priority 2021, published 2025).
